Test results from BindingDB's records for PubMed 31761384 (China Pharmaceutical University, 2020).
Bridge positions count the residues as written; N and C are the ends. Peptide text beside a SMILES is read from it.

Assay: Inhibition of human PD-1 expressed in rat PBMCs/human PD-L1 expressed in MDA-MB-231 cells protein-protein interaction assessed as increase in PBMCs proliferation

CC[C@H](C)[C@@H]1NC(=O)[C@H](CC(C)C)NC(=O)[C@H](Cc2ccccc2)NC(=O)CSC[C@@H](C(=O)NCC(N)=O)NC(=O)[C@H](CCCNC(=N)N)NC(=O)[C@H](Cc2ccccc2)NC(=O)[C@H](C(C)C)NC(=O)[C@H](CCCNC(=N)N)NC(=O)[C@H](CC(=O)O)NC(=O)[C@H](CCCNC(=N)N)NC(=O)[C@H]([C@@H](C)CC)NC(=O)[C@H](C(C)C)NC1=O ({CH2CO}-FLIVIRDRVFRCG-NH2; thioether N-12)
EC50: 0.41 nM
